# Experimental data published in ChEMBL document CHEMBL1201862, “PubChem BioAssay data set” (2004).
# The source made the active and inactive calls.
# What was measured:
# [1] = growth suppression of PTEN-null colon cells, dose response, cell-based, HCT116 PTEN knockout (AID 1047); type: functional;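 also: HCT116 colon tumor cells with PTEN knocked out; cells exposed to compound for 60 hours before readout; potency for loss of cell viability measured by luminescence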
# [2] = inhibitors of intracellular T. cruzi replication, confirmation, NIH3T3 host cells, beta-gal luminescence (AID 2044); type: functional, cell-based;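 also: intracellular parasites grown in NIH/3T3 mouse fibroblasts as host cells; luminescent beta-galactosidase reporter signal from transgenic T. cruzi replicating inside host cells; inhibitors lower the luminescence signal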
# Cannabinoid receptor 1 [3] = molecular target: T1, Cannabinoid receptor 1 (Homo sapiens, UniProt P21554); experiment: SAR analysis of antagonists of the Cannabinoid Receptor 1 using an Image-Based Assay - Set 2. [Related pubchem assays (depositor defined):AID2013, AID2026]; type: functional
# T1 sequence (P21554 whole entry): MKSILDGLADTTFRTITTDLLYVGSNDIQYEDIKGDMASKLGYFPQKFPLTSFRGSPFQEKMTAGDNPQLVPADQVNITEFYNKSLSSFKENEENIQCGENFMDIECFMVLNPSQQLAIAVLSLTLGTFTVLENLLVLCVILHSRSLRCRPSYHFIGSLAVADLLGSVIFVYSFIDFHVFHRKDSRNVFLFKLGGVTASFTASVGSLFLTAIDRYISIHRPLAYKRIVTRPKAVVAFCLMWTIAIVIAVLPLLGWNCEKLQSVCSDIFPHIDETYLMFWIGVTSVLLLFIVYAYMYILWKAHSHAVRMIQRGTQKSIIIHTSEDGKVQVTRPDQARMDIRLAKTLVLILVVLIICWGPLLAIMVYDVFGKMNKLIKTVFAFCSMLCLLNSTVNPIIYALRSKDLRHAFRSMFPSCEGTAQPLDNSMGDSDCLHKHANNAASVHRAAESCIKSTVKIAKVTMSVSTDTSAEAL
# [4] = molecular target: T2, G-protein coupled receptor 55 (Homo sapiens, UniProt Q9Y2T6); experiment: GPR55 antagonist potency of analogs, SAR follow-up, imaging, U2OS, beta-arrestin-GFP, LPI agonist, set 2 (AID 2820); type: functional
# T2 sequence (Q9Y2T6 whole entry): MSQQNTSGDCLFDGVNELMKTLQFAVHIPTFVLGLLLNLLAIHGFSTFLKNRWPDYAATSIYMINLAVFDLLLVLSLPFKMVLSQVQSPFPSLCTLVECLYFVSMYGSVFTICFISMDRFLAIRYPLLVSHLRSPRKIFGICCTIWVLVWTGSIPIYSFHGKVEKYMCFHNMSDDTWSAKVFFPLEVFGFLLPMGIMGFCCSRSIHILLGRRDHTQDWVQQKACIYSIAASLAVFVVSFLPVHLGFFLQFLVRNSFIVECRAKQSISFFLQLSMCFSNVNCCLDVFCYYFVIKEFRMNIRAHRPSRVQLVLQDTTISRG
# Cannabinoid receptor 2 [5] = molecular target: T3, Cannabinoid receptor 2 (Homo sapiens, UniProt P34972); experiment: SAR analysis of agonists of the Cannabinoid Receptor 2 using an Image-Based Assay. [Related pubchem assays (depositor defined):AID2013, AID2026]; type: functional
# T3 sequence (P34972 whole entry): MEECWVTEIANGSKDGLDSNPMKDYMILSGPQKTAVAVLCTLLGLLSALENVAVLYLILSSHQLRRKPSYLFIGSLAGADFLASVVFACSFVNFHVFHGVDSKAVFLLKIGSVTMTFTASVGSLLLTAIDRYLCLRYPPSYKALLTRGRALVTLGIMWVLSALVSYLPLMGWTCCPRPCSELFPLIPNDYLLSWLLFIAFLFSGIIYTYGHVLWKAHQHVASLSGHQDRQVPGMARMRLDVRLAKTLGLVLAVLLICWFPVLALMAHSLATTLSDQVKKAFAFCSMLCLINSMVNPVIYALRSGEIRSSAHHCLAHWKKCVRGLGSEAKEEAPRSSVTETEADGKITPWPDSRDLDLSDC
# [6] = molecular target: T4, G-protein coupled receptor 35 (Homo sapiens, UniProt Q9HC97); experiment: SAR analysis of Agonists of the GPR35 Receptor using an Image-Based Assay - Set 2. [Related pubchem assays (depositor defined):AID2013, AID2026]; type: functional
# T4 sequence (Q9HC97 whole entry): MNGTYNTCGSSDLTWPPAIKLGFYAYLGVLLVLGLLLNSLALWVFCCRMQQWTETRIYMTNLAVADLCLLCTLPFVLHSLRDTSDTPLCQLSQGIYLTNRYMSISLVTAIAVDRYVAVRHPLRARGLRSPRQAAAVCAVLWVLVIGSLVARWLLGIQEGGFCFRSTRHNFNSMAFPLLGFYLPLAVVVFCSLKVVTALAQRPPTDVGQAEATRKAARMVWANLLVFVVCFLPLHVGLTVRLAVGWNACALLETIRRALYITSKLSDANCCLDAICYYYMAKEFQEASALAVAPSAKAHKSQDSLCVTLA
# Cannabinoid receptor 1 [7] = molecular target: T1, Cannabinoid receptor 1; experiment: SAR analysis of agonists of the Cannabinoid Receptor 1 using an Image-Based Assay - Set 2. [Related pubchem assays (depositor defined):AID2013, AID2026]; type: functional
# [8] = molecular target: T4, G-protein coupled receptor 35; experiment: SAR analysis of Antagonists of the GPR35 Receptor using an Image-Based Assay - Set 3. [Related pubchem assays (depositor defined):AID2013, AID2026]; type: functional
# Cannabinoid receptor 2 [9] = molecular target: T3, Cannabinoid receptor 2; experiment: SAR analysis of antagonists of the Cannabinoid Receptor 2 using an Image-Based Assay. [Related pubchem assays (depositor defined):AID2013, AID2026]; type: functional
# [10] = growth suppression of beta-catenin-knockout colon cells, dose response, cell-based, HCT116, human colon tumor (AID 1045); type: functional;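 also: HCT116 colon tumor cells with beta catenin knocked out; cells exposed to compound for 60 hours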
# [11] = cytotoxicity toward NIH3T3 fibroblasts, dose response, counter-screen, cell-based, ATP luminescence, mouse fibroblasts (AID 2010); type: functional;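 also: cells exposed to compound for about 90 hours before reading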
# [12] = molecular target: T2, G-protein coupled receptor 55; experiment: GPR55 antagonists blocking LPI-driven arrestin recruitment, primary screen, imaging, U2OS, beta-arrestin-GFP, LPI agonist (AID 2013); type: functional;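 also: antagonist potency measured as reduced agonist-driven arrestin aggregation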
# [13] = molecular target: Voltage-dependent T-type calcium channel subunit alpha-1H (Homo sapiens, UniProt O95180); experiment: Cav3.2 T-type channel blockers, cell-based, SynthLib3 library, HEK293 Cav3.2, fluorescence (AID 493041); type: functional
# Sequence of Voltage-dependent T-type calcium channel subunit alpha-1H (O95180 whole entry): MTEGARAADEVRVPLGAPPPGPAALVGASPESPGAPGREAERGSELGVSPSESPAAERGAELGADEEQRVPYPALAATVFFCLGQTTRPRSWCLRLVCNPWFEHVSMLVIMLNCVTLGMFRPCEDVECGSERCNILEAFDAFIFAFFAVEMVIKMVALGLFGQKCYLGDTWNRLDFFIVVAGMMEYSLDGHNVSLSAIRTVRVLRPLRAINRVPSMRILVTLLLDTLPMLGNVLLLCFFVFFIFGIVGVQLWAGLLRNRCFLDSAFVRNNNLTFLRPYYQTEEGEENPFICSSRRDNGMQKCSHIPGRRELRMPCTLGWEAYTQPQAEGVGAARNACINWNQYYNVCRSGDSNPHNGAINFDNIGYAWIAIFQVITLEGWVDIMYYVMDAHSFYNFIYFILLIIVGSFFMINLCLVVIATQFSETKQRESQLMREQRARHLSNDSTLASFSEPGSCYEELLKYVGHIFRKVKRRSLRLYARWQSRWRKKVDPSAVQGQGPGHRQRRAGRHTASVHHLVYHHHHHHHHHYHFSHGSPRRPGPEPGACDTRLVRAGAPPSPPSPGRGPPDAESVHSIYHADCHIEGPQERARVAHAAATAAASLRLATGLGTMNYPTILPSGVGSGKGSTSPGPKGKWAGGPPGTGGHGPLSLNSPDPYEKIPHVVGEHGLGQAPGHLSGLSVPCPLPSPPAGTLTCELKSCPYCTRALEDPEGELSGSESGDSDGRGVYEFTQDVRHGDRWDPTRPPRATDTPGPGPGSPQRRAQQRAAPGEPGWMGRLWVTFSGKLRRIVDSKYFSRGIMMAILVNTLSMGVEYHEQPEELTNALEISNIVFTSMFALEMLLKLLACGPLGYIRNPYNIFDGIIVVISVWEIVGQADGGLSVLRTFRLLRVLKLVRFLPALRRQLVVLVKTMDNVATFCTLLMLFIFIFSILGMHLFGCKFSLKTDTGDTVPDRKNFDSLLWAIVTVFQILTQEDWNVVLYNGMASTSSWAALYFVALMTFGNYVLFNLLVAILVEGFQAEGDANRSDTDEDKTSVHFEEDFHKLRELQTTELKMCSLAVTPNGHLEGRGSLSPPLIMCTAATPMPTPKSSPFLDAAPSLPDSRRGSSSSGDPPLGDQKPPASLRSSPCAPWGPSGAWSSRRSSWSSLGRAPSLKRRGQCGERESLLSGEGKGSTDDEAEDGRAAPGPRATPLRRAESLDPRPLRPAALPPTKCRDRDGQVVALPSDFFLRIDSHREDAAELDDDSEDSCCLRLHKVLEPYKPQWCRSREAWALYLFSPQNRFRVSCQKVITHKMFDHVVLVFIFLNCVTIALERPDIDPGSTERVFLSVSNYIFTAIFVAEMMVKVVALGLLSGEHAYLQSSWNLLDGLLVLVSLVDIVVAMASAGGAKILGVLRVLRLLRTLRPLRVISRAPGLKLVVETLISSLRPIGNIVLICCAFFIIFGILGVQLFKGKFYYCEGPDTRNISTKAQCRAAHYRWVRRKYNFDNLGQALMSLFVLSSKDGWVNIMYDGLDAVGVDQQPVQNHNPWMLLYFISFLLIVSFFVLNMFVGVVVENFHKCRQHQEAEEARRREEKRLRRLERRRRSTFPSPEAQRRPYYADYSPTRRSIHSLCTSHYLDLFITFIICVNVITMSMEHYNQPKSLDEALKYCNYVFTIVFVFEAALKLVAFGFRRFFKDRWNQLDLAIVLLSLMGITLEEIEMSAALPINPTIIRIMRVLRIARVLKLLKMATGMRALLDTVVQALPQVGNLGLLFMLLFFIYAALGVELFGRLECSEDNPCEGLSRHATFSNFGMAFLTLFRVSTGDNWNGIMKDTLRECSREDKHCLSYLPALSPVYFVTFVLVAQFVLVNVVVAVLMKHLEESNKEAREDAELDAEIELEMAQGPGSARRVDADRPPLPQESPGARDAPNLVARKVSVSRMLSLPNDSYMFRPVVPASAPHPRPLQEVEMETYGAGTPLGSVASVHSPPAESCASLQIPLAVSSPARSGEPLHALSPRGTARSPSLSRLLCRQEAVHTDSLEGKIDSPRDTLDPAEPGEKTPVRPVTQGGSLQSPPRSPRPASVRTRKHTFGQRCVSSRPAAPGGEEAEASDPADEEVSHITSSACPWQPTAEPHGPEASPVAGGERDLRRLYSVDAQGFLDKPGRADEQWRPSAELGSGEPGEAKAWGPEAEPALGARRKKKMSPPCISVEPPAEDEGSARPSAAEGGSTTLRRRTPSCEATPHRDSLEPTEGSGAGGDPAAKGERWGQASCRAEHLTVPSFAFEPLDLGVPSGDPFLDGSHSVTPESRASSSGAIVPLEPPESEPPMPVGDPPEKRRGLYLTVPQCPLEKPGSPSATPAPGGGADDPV
# [14] = molecular target: T5, Kappa-type opioid receptor (Homo sapiens, UniProt P41145); type: functional
# T5 sequence (P41145 whole entry): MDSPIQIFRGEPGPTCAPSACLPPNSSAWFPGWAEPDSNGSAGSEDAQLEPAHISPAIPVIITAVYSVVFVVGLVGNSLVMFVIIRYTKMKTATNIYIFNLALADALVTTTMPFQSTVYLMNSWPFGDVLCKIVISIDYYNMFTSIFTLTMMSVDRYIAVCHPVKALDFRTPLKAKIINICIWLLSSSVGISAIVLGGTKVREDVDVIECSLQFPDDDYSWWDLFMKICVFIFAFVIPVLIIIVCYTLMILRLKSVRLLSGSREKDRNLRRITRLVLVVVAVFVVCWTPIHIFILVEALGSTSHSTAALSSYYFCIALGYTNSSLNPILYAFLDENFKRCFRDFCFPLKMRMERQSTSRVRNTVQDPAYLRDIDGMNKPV
# [15] = molecular target: T6, Delta-type opioid receptor (Homo sapiens, UniProt P41143); experiment: HTS Image-Based Screen for Antagonists of the DOR Receptor. [Related pubchem assays (depositor defined):AID1777, AID1785, AID1786, AID2133]; type: functional
# T6 sequence (P41143 whole entry): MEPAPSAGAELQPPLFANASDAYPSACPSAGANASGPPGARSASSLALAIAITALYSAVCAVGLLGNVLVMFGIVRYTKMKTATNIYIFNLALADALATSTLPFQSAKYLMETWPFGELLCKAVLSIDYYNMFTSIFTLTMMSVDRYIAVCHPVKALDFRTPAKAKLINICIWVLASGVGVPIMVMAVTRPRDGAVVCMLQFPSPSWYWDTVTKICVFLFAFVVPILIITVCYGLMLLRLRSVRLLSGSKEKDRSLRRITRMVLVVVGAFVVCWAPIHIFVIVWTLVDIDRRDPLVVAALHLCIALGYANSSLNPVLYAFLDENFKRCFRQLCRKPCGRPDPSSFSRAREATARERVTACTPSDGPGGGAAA
# Beta-galactosidase = Beta-galactosidase (Escherichia coli, UniProt Q8VNN2); type: functional
# [16] = molecular target: T6, Delta-type opioid receptor; experiment: HTS Image-Based Screen for Agonists of the DOR Receptor. [Related pubchem assays (depositor defined):AID1777, AID1786, AID2133]; type: functional
# Mu-type opioid receptor = Mu-type opioid receptor (Homo sapiens, UniProt P35372); experiment: HTS Image-Based Screen for Agonists of the MOR Receptor. [Related pubchem assays (depositor defined):AID1777, AID1785, AID1786, AID2133]; type: functional;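 also: imaging of beta-arrestin GFP recruitment into spots after receptor activation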
# Sequence of Mu-type opioid receptor (P35372 whole entry): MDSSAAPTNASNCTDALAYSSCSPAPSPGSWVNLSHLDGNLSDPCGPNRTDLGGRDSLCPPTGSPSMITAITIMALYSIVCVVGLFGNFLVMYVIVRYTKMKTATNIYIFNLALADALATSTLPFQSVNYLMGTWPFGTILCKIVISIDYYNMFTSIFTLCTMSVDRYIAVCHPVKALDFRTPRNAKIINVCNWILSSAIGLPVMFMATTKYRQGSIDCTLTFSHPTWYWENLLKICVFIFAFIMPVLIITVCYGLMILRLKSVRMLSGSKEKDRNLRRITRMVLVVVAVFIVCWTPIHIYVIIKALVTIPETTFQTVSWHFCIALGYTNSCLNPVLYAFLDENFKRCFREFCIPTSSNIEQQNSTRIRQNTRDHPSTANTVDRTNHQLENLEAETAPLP
# [17] = molecular target: T5, Kappa-type opioid receptor; type: functional; remark: listed apart in the source
smiles,measurement,setting,value
CCC(C)NS(=O)(=O)c1ccc(NC(=O)C(Sc2ccccc2)c2ccccc2)cc1 (centres undefined),EC50,[1],13.6 µM (active)
same,EC50,[2],2.34 µM (active)
same,IC50,Cannabinoid receptor 1 [3],0.975 µM (active)
same,IC50,[4],1.94 µM (active)
same,EC50,Cannabinoid receptor 2 [5],> 32 µM (inactive)
same,EC50,[6],> 32 µM (inactive)
same,EC50,Cannabinoid receptor 1 [7],> 32 µM (inactive)
same,IC50,[8],> 32 µM (inactive)
same,IC50,Cannabinoid receptor 2 [9],> 32 µM (inactive)
same,EC50,[10],14.5 µM (active)
same,EC50,[11],> 60 µM (not active)
same,IC50,[12],0.592 µM (active)
CCC(CC)CN1CCC[C@H](NC(=O)COc2ccc(F)c(Cl)c2)C1,EC50,[13],10 µM (active)
COC(=O)c1ccc(C)c(-n2c(=O)n(Cc3ccccc3)c(=O)c3[nH]cnc32)c1,IC50,[14],> 32 µM
same,IC50,[15],> 32 µM (inactive)
same,EC50,Beta-galactosidase,11.5 µM (active)
same,EC50,[16],> 32 µM (inactive)
same,EC50,Mu-type opioid receptor,> 32 µM (inactive)
same,IC50,[17],6.39 µM (active)
